Results from PubChem BioAssay (NCI).
Values joined by “and” are separate entries in the source; they are usually repeats but may differ in a detail not shown here. Equal entries are not always repeated.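 Following 48 hours of exposure in 96-well plates, responses at five concentrations were used to interpolate endpoints linearly. GI50: concentration for 50% inhibition of growth. TGI marks complete inhibition of growth.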

Key:
Experiment in all cases: NCI anticancer screen, dose series, 48 h
[1] = test system: NCI/ADR-RES ovarian
[2] = test system: PC-3 prostate
[3] = test system: KM12 colon
[4] = test system: ACHN renal
[5] = test system: SK-MEL-5 melanoma
[6] = test system: CAKI-1 renal
[7] = test system: T-47D breast
[8] = test system: A549 NSCLC
[9] = test system: SK-MEL-2 melanoma
[10] = test system: SNB-75 CNS

Row | SMILES | TGI [1] [µM] | TGI [2] [µM] | TGI [3] [µM] | TGI [4] [µM] | TGI [5] | TGI [6] [µM] | TGI [7] [µM] | TGI [8] [µM] | TGI [9] [µM] | TGI [10] [µM] | GI50 [10] [µM] | GI50 [1] [µM] | GI50 [2] [µM] | GI50 [3] [µM] | GI50 [4] [µM] | GI50 [5] | GI50 [6] [µM] | GI50 [7] [µM] | GI50 [8] [µM]
1 | CNC(=S)NNc1ncnc2c1c(-c1ccc(Cl)cc1)cn2-c1ccc(C)cc1 | 34.4 | 17.9 | 22 | 22.8 | 20.8 µM | 23.2 | 24.1 | 19.2 | 27.7 |  |  |  |  |  |  |  |  |  | 
2 | Nc1c(S(N)(=O)=O)cc(S(N)(=O)=O)cc1S(N)(=O)=O | > 100 | > 100 | > 100 | > 100 | > 100 µM | > 100 | > 100 | > 100 |  | > 100 |  |  |  |  |  |  |  |  | 
3 | Cn1c2c(c3ccccc31)CCN1C(=O)C34CCCC3CC21S4 (stereo not given) | > 100 | > 100 | > 100 | > 100 | > 100 µM | > 100 | > 100 | > 100 | > 100 |  |  |  |  |  |  |  |  |  | 
4 | CCN(CCCCCCCCCCN1CC(=O)N(CCCCCCCCCCN(CC)Cc2ccccc2OC)CC1=O)Cc1ccccc1OC | 3.24 | 2.59 | 2.24 | 6.82 | 2.7 µM | 3.15 | 6.33 | 4.54 |  | 11.8 | 2.68 | 1.64 | 1.14 | 1.03 | 2.36 | 1.36 µM | 1.57 | 1.99 | 1.65
5 | Cc1cn(CCCCCOC(=O)NC(CCCNC(N)=O)C(=O)O)c(=O)[nH]c1=O (stereo not given) | > 100 | > 100 | > 100 | > 100 |  | > 100 | > 100 | > 100 | > 100 | > 100 |  |  |  |  |  |  |  |  | 
6 | O=C1CC(c2ccccc2Cl)C2(C(=O)NC(=O)NC2=O)C(c2ccccc2Cl)C1 (stereo not given) | > 100 | > 100 | > 100 | > 100 | > 100 µM |  | 78.2 | > 100 | > 100 | > 100 |  |  |  |  |  |  |  |  | 
7 | COc1ccc(C2Oc3c(OC)cc(CCCO)cc3C2CO)cc1OC (stereo not given) | > 100 | > 100 | > 100 | > 100 | > 100 µM and 31.1 µM |  | > 100 | > 100 | > 100 | > 100 |  |  |  |  |  | 36 µM and 12 µM |  |  | 
8 | Cn1nc2c(c1N)Cc1c(nn(C)c1N)-c1ccccc1-2 | > 100 | > 100 | > 100 | > 100 | > 100 µM | > 100 | > 100 | > 100 | > 100 |  |  |  |  |  |  |  |  |  | 
9 | CC(C)(C)c1cc(/C=C2/NC(=O)NC2=O)cc(C(C)(C)C)c1O | 34.1 | 20.3 | 28.5 | 24.1 | 27 µM | 31.5 | 11.8 |  | 27.2 | 25.2 |  |  |  |  |  |  |  |  | 
10 | CN(C)CCNc1c([N+](=O)[O-])sc2ccc(Cl)cc12 | > 100 | > 100 | > 100 | > 100 | > 100 µM |  | > 100 | > 100 | > 100 | 43 |  |  |  |  |  |  |  |  | 
